Data set [1] relates to SMMC7721 hepatoma cells. The experiment in a line: Anti-tumor activity in vitro, MTT method, SMMC7721. The data set is classed as cell-based, human. The note with it: for IC50: MTT; for IC50 compared with Icaritin, SMMC7721 72 h: SMMC7721, 72 h after administration. On the procedure:
(§1) The effects of Icaritin and its derivatives on the activities of HepG2 and SMMC7721 hepatoma cells were investigated by a MTT method. […] After reaction for 48, 7 2 h, each well was added with 20 μL 5 mg/mL, of MTT solution, and incubated in a cell incubator for 3-4 h. Then the liquid in the well plates was sucked to discard. Each well was added with 150 μL of dimethyl sulfoxide (DMSO), and shaken on an enzyme-labeled instrument for 30 s at ambient temperature so that the Formazan crystals were dissolved sufficiently. The absorbance value A of each well at 570 nm was detected by the enzyme-labeled instrument, and the experiment was repeated for 3 times.

The nature of data set [2]: Determination of solubility (HPLC). The note with it: for solubility: 37 °C, thermodynamic from solid. The data set is classed as physicochemical. On the procedure: About 1.325 mg of Icaritin and the synthesized derivative were weighed and dissolved in 1.5 mL methanol respectively, then diluted with methanol into solutions of 10, 20, 50, 100, 150, 200, 500 μg/mL, and filtered over an organic-system filter head of 0.45 μm into sample bottles, obtaining the samples for test. Four parts of Icaritin and the synthesized derivative were weighed respectively, 1.00 mg for each part, and placed into 1.5 mL EP tubes, and 1 mL of water, normal saline, PBS, and 0.1% Tween 80 were respectively added thereto. The obtained solutions were ultrasonicated for 1 h, placed in a water bath at 37° C. overnight, and centrifuged at 10000 r/min for 3 min to collect supernatants. The supernatants were taken into sample bottles and detected by HPLC. The experiments were conducted in parallel for three times. The detection of HPLC is conducted under conditions of a chromatographic column of waters Symmetry C18, a mobile phase of a solution of methanol and water with a ratio of 80:20, a flow rate of 1.0 mL/min, a column temperature of 30° C., a detection wavelength of 210 nm, a run time of 30 min, and a sample load of 20 μL.

Data set [3] has as its system HepG2 hepatoma cells. The experiment in a line: Anti-tumor activity in vitro, MTT method, HepG2. The data set is classed as cell-based, human. The note with it: for IC50: MTT; for IC50 compared with Icaritin, HepG2 72 h: HepG2, 72 h after administration. On the procedure:
as §1

The mark [4] stands for this setting: Homo sapiens, SMMC-7721, SMMC7721, 48 h, read-out: IC50 SMMC7721 48 h.
Where [5] appears, read: Homo sapiens, SMMC-7721, SMMC7721, 72 h, read-out: IC50 SMMC7721 72 h.
Where [6] appears, read: aqueous with cosolvent or surfactant or cyclodextrin.
Where [7] appears, read: Homo sapiens, HepG2, 48 h, read-out: IC50 HepG2 48 h.
Setting [8] is: Homo sapiens, HepG2, 72 h, read-out: IC50 HepG2 72 h.

Values after ≈ are worked out from the molar mass of the structure shown. Where two headings read alike, the source gives them in different places.

In the case of `COc1ccc(-c2oc3c(CC=C(C)C)c(O)cc(O)c3c(=O)c2OC(=O)CCC(=O)OCc2cn([C@H]3O[C@@H](CO)[C@H](O)[C@@H](O)[C@@H]3O)nn2)cc1` [Compound 35], the IC50 in data set [1] (setting [4]), in data set [1] (setting [5]), in data set [3] (setting [7]) and in data set [3] (setting [8]) was > 100 µM throughout. For the same compound, in data set [2], the “solubility compared with that of the bulk drug (Icaritin)” value (shortened to “solubility compared with that”) is “improved effectively”. Besides, the solubility in data set [2] (aqueous buffer) turned out to be 12 ± 1.02 µg/mL (≈ 16.8 µM); in data set [2] (setting [6]), 12.1 ± 1.03 µg/mL (≈ 17 µM); in data set [2] (saline or isotonic) it was 12.3 ± 1.31 µg/mL (≈ 17.3 µM); in data set [2] (water), 12 ± 1.23 µg/mL (≈ 16.8 µM).

Regarding `COc1ccc(-c2oc3c(CC=C(C)C)c(O)cc(O)c3c(=O)c2OC(=O)CCC(=O)OCc2cn(CCOC3OC(CO)C(O)C(O)C3O)nn2)cc1` (stereo not shown) [Compound 39], the IC50 in data set [1] (SMMC7721, 48 h, read-out: IC50 SMMC7721 48 h) was > 100 µM. The IC50 in data set [1] (SMMC7721, 72 h, read-out: IC50 SMMC7721 72 h) stood at 6.65 ± 1.29 µM. In addition, the “IC50 compared with Icaritin, SMMC7721 72 h” value in data set [1] is reported as “less than that of Icaritin”. In data set [2], the “Solubility, 0.1% Tween 80” value stood at 13.819 ± 1.323 µg/mL (≈ 18.3 µM); the “Solubility, Normal Saline” value was 13.828 ± 1.123 µg/mL (≈ 18.3 µM); the “Solubility, PBS” value was determined as 13.825 ± 0.937 µg/mL (≈ 18.3 µM); the “Solubility, Water” value came out at 13.871 ± 1.031 µg/mL (≈ 18.4 µM). Further, in data set [2], the “solubility compared with that” value was “improved effectively”. The IC50 in data set [3] (HepG2, 48 h, read-out: IC50 HepG2 48 h) is > 100 µM. Further, the IC50 in data set [3] (HepG2, 72 h, read-out: IC50 HepG2 72 h) is 5.56 ± 0.6 µM. Moreover, the “IC50 compared with Icaritin, HepG2 72 h” value in data set [3] is given as “less than that of Icaritin”.

As to `COc1ccc(-c2oc3c(CC=C(C)C)c(O)cc(O)c3c(=O)c2OC(=O)CCC(=O)OCc2cn(CCOCCO[C@H]3O[C@@H](CO)[C@H](O)[C@@H](O)[C@@H]3O)nn2)cc1` [Compound 44], the IC50 in data set [1] (setting [4]) was > 100 µM; in data set [1] (setting [5]), > 100 µM; in data set [3] (setting [7]) it was > 100 µM; in data set [3] (setting [8]), 10.1 ± 0.32 µM. The “solubility compared with that” value in data set [2] is recorded as “improved effectively”. Besides, the solubility is 11 ± 1.04 µg/mL (≈ 13.8 µM) in data set [2] (aqueous buffer), 11.2 ± 1.09 µg/mL (≈ 14 µM) in data set [2] (setting [6]), 11 ± 1.03 µg/mL (≈ 13.8 µM) in data set [2] (saline or isotonic) and 11.3 ± 0.831 µg/mL (≈ 14.1 µM) in data set [2] (water). Further, the “IC50 compared with Icaritin, HepG2 72 h” value in data set [3] was “less than that of Icaritin”.

For the compound `COc1ccc(-c2oc3c(CC=C(C)C)c(O)cc(O)c3c(=O)c2OC(=O)CCC(=O)OCCOCCOCCOCCOCc2cn([C@H]3O[C@@H](CO)[C@H](O)[C@@H](O)[C@@H]3O)nn2)cc1` [Compound 50], the IC50 in data set [1] (setting [4]) is > 100 µM; in data set [1] (setting [5]), 46.5 ± 3.43 µM; in data set [3] (setting [7]), 24.1 ± 3.06 µM; in data set [3] (setting [8]), 25.3 ± 2.11 µM. Also, the “Solubility, Normal Saline” value in data set [2] was “Insoluble”. Moreover, the solubility in data set [2] (aqueous buffer) came out at 4.53 ± 0.347 µg/mL (≈ 5.11 µM); in data set [2] (setting [6]), 4.64 ± 1.27 µg/mL (≈ 5.22 µM); in data set [2] (water) it was 4.55 ± 0.324 µg/mL (≈ 5.13 µM).

Turning to `COc1ccc(-c2oc3c(CC=C(C)C)c(O)cc(O)c3c(=O)c2OC(=O)CCC(=O)OCCOCCOCCOCc2cn(CCO[C@H]3O[C@@H](CO)[C@H](O)[C@@H](O)[C@@H]3O)nn2)cc1` [Compound 58], the IC50 in data set [1] (setting [4]) was > 100 µM; in data set [1] (setting [5]), 2.51 ± 0.72 µM; in data set [3] (setting [7]), 19.7 ± 0.52 µM; in data set [3] (setting [8]), 20 ± 2.12 µM. Also, in data set [1], the “IC50 compared with Icaritin, SMMC7721 72 h” value is recorded as “less than that of Icaritin”. Also, the solubility in data set [2] (aqueous buffer) came out at 3.82 ± 0.874 µg/mL (≈ 4.31 µM); in data set [2] (setting [6]), 3.89 ± 0.941 µg/mL (≈ 4.38 µM); in data set [2] (saline or isotonic), 3.68 ± 0.947 µg/mL (≈ 4.15 µM); in data set [2] (water), 3.64 ± 0.374 µg/mL (≈ 4.1 µM).

Regarding `COc1ccc(-c2oc3c(CC=C(C)C)c(O)cc(O)c3c(=O)c2OC(=O)CCC(=O)OCCOCCOCc2cn([C@H]3O[C@@H](CO)[C@H](O)[C@@H](O)[C@@H]3O)nn2)cc1` [Compound 64], the IC50 in data set [1] (setting [4]) is > 100 µM; in data set [1] (setting [5]), > 100 µM; in data set [3] (setting [7]), > 100 µM; in data set [3] (setting [8]), 32.6 ± 3.12 µM. Further, in data set [2], the “Solubility, Normal Saline” value is given as “Insoluble”. Also, the solubility in data set [2] (aqueous buffer) amounted to 0.991 ± 0.314 µg/mL (≈ 1.24 µM); in data set [2] (setting [6]), 1.08 ± 0.756 µg/mL (≈ 1.35 µM); in data set [2] (water) it was 2.24 ± 0.941 µg/mL (≈ 2.8 µM).

For the origin of these results see patent US20240067672A1, “FLAVONE DERIVATIVE FOR TREATING TUMORS AND USE THEREOF” (SICHUAN FUSHENGYUAN TECHNOLOGY CO., LTD, priority 2019, published 2024).
